One experiment has as its target T1, Muscarinic receptor 2 (Cavia porcellus, UniProt Q8VH27).
T1 sequence (Q8VH27 whole entry): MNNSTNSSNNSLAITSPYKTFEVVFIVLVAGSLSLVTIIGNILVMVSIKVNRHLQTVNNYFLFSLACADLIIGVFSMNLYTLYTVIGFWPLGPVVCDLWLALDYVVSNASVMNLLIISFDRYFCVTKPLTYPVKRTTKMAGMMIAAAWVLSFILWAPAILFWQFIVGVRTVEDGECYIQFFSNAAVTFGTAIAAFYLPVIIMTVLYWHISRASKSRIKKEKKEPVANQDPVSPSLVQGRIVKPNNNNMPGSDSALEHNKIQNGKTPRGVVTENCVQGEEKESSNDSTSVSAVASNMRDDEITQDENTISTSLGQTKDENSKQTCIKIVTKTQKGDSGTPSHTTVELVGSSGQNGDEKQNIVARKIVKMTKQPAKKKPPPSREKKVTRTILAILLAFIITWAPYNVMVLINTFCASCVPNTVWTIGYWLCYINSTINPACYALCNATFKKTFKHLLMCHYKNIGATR
Description: Antagonist activity at Cavia porcellus (guinea pig) left atria M2 receptor after 2 hr. Conditions: read-out: pA2 (converted).

The target of experiment [1] is Muscarinic acetylcholine receptor M3 (Cavia porcellus, UniProt Q8VH26). Description: Antagonist activity at Cavia porcellus (guinea pig) ileum M3 receptor after 30 min. It counts as tissue-based. Conditions: read-out: pA2 (converted).
Chain of Muscarinic acetylcholine receptor M3 (Q8VH26 whole entry): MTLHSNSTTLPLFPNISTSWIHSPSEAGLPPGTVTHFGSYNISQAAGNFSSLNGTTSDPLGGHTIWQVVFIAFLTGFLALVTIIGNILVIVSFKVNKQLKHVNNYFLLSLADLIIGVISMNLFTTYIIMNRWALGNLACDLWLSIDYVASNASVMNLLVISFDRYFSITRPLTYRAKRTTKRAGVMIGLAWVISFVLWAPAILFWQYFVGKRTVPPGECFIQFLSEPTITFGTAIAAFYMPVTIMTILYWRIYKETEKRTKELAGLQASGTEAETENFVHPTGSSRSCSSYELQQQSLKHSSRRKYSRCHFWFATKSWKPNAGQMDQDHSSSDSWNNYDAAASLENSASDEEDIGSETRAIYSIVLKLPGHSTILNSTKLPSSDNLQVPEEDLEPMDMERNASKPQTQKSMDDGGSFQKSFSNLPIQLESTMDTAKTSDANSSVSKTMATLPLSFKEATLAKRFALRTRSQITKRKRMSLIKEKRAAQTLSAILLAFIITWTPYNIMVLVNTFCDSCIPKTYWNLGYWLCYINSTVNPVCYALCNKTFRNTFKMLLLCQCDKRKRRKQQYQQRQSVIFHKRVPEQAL
The species named for a further experiment is Cavia porcellus. Nature of the experiment: Selectivity ratio of pKb for Cavia porcellus (guinea pig) ileum M3 receptor to pKb for Cavia porcellus (guinea pig) left atria M2 receptor. Type of experiment: tissue-based. The following applies: Atrium/Ileum.
Experiment [2] in a line: Selectivity ratio of pKb for rabbit vas deferens M1 receptor to pKb for guinea pig ileum M3 receptor. Type of experiment: tissue-based.
Experiment [3] addresses T2, Muscarinic receptor 2 (Cavia porcellus) (UniProt Q8VH27).
T2 sequence (whole entry): T1 sequence (Q8VH27 whole entry)
Description: Binding affinity to Cavia porcellus (guinea pig) left atria M2 receptor after 2 hr.

The target in experiment [4] is Muscarinic acetylcholine receptor M3 (Cavia porcellus) (UniProt Q8VH26). Nature of the experiment: Binding affinity to Cavia porcellus (guinea pig) ileum M3 receptor after 30 min. Type of experiment: tissue-based.
Chain of Muscarinic acetylcholine receptor M3 (Cavia porcellus) (Q8VH26 1-587): as the sequence (Q8VH26 whole entry) above
The species named for the next experiment is Oryctolagus cuniculus. Nature of the experiment: Binding affinity to Oryctolagus cuniculus (rabbit) vas deferens M1 receptor after 1 hr.
Experiment [5] is described as follows: Selectivity ratio of pKb for rabbit vas deferens M1 receptor to pKb for guinea pig left atria M2 receptor.

Turning to `CN(C)[C@H]1CO[C@@H](C(c2ccccc2)c2ccccc2)OC1`, the Kb on Muscarinic receptor 2 is 28.2 nM; in experiment [1], 5.37 nM.
Turning to `CN(C)C[C@@H]1CO[C@@H](C(c2ccccc2)c2ccccc2)O1`, the Ratio pKb in the experiment filed under Cavia porcellus turned out to be 1; in experiment [2], 2; in experiment [5], 2. Moreover, the pKb in experiment [3] amounted to 6.56; in experiment [4] it was 6.67; in the experiment listed under Oryctolagus cuniculus, 6.9.
As to `CN(C)CC1COC(c2ccccc2)(c2ccccc2)O1` (centres undefined), the Ratio pKb was 0.4 in the experiment filed under Cavia porcellus, 3 in experiment [2] and 1 in experiment [5]. For the same molecule, the pKb was 7.11 in experiment [3], 6.72 in experiment [4] and 7.15 in the experiment filed under Oryctolagus cuniculus.
Consider `C[C@@H]1OC(c2ccccc2)(c2ccccc2)O[C@@H]1CN(C)C` (relative stereo), for which the Ratio pKb in the experiment filed under Cavia porcellus is 0.9; in experiment [2], 0.8; in experiment [5], 0.7. In addition, the pKb in experiment [3] was determined as 6.48; in experiment [4], 6.44; in the experiment listed under Oryctolagus cuniculus it was 6.35.
Regarding `CN(C)C[C@@H]1CO[C@H](C(c2ccccc2)c2ccccc2)O1`, the Ratio pKb in the experiment filed under Cavia porcellus came out at 0.3; in experiment [2], 17; in experiment [5], 5. Also, the negative logarithm of the Kb (pKb) in experiment [3] is 6.62; in experiment [4], 6.07; in the experiment filed under Oryctolagus cuniculus, 7.31.
Regarding `CN(C)[C@H]1CO[C@H](C(c2ccccc2)c2ccccc2)OC1`, the results for the Kb (on Muscarinic receptor 2; in experiment [1]) were 1580 nM and 372 nM, respectively.
Turning to `C[C@H]1OC(c2ccccc2)(c2ccccc2)O[C@@H]1CN(C)C` (relative stereo), the Ratio pKb (in the experiment listed under Cavia porcellus; in experiment [2]; in experiment [5]) was 1 throughout. Besides, the pKb is 6.71 in experiment [3], 6.71 in experiment [4] and 6.87 in the experiment filed under Oryctolagus cuniculus.

Broadly, the pKb is the negative decadic logarithm of the Kb, by convention in mol/L. Low readings indicate a high Kb, high ones a low Kb.

Source of the values: ChEMBL document CHEMBL3046433, “Synthesis and Antimuscarinic Activity of Derivatives of 2-Substituted-1,3-Dioxolanes” (Med Chem Res, 2005).
